Data reported in patent publication US20220411362A1, “DITERPENOID COMPOUNDS THAT ACT ON PROTEIN KINASE C (PKC)” (K-Gen, Inc., priority 2019, published 2022).
Like-named read-outs stand apart in the source and are kept apart here.

Key:
C1b domain of human PKCδ = biological target: T1, C1b domain of human PKCδ (Homo sapiens, UniProt Q05655); assay: Competitive 3H-PDBu binding to C1b domain of PKCδ; conditions: Ki PKCδ, 3H-PDBu competition
T1 construct: Genes encoding C1b domains of human PKCα, δ, ε, θ, and PKD1 (PKCμ) were synthesized; made in house; host or cells: E. coli BL21(DE3)
Outline: (§1)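 Affinity was measured by competition with the radiotracer 3H-PDBu for recombinant human GST-C1b fusion proteins expressed in E. coli BL21(DE3). Incubation ran 10 minutes at 37° C with shaking, then 20 minutes on ice, and filter-trapped 3H-PDBu was counted by scintillation. IC50 values were converted to Ki by Cheng-Prusoff using the experimentally determined Kd for each protein preparation.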

C1b domain of human PKCα = biological target: T2, C1b domain of human PKCα (Homo sapiens, UniProt P17252); assay: biochemical; type: binding; conditions: 3H-PDBu competition; for Ki: Ki PKCα
T2 construct: Genes encoding C1b domains of human PKCα, δ, ε, θ, and PKD1 (PKCμ) were synthesized; made in house; host or cells: E. coli BL21(DE3)
Outline: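 Competitive binding against 3H-PDBu tracer used recombinant GST-C1b fusion protein expressed in E. coli. Incubation ran 10 min at 37°C with shaking, then 20 min on ice, followed by filtration and scintillation counting of trapped 3H-PDBu. Affinity was derived using each protein preparation's experimentally determined Kd for 3H-PDBu.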

[1] = biological target: T3, C1b domain of human PKD1 (PKCμ) (Homo sapiens, UniProt Q15139); assay: biochemical; type: binding
T3 construct: Genes encoding C1b domains of human PKCα, δ, ε, θ, and PKD1 (PKCμ) were synthesized; made in house; host or cells: E. coli BL21(DE3)
T3 sequence (Q15139 270-320 limits assumed): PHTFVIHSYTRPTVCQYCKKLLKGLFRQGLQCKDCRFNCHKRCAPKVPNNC
Outline: as §1

[2] = system: phosphorylation of PKCμ, PKCδ and Erk1/2 in A549 lung cancer cells; type: cell-based; conditions: 30 minutes
Experimental: Cells were then treated with different drugs at indicated concentrations for 30 minutes. […] Imagequant LAS4000 (GE) was used to scan membranes if secondary antibodies anti-mouse IgG HRP conjugate or anti-rabbit IgG HRP conjugate (dilutions from 1:2000-1:10000) were used. For ProteinSimple Wes system, manufacture's procedure was followed (ProteinSimple 12-230 kDa Wes Separation Module) for sample preparation, loading, running, and data analysis.
Phosphorylation of these sites has been linked to acute activation or catalytic activity of the PKC isoforms and Erk1/2. High level of phosphorylation indicates strong activation.

[3] = system: A549 non-small cell lung cancer cell line; assay: Proliferation of A549 (CellTiter Glo); type: cell-based; conditions: Homo sapiens, A549, 96 h, read-out: IC50 μM (A549 Cell Line)
Outline: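 A549 cells (K-Ras mutant) seeded 1,000/well, 24 h at 37° C, then treated with 3-fold serial dilutions (final DMSO ≤0.25%) for 96 h. Viability by CellTiter Glo luminescence; % inhibition vs DMSO-only Max, curve-fit to give IC50, relative IC50 and % top inhibition.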

[4] = system: HL-60 (Leukemia) cell line; assay: Proliferation of HL-60; type: cell-based; conditions: for ratio of (IC50 of K01)/(IC50 of compound), HL-60: value in parenthesis; for IC50: Homo sapiens, HL-60, read-out: IC50 in μM HL-60 (Leukemia)
Experimental: (§2) The diterpenoid compounds were tested in A549, a non-small cell lung cancer cell line harboring a K-Ras activating mutation. Briefly, A549 cells at a density of 1,000 cells/well were seeded in 96-well plates and incubated at 37° C. for 24 hours. A series of different concentrations of compound stocks (500×) were prepared by 3-fold serial dilution in DMSO. These compounds were further diluted in culture media and then added to cells so that the final DMSO concentration was not exceeding 0.25%. After 96 hours of incubation, 50 μL of CellTiter Glo reagent (Promega) was added to each well and luminescence was measured after 10 minutes using EnVision (PerkinElmer). Luminescence from cells treated with DMSO alone was set as Max and % of inhibition was calculated as follows: Inhibition %=(Max−Sample value)/Max×100. Data was analyzed using XL-fit software (ID Business Solutions Ltd.) and IC50, relative IC50, and % of top inhibition was calculated. Some of the compounds in this disclosure were very potent in blocking proliferation of A549 lung cancer cells at low nM range. In addition, potency of inhibiting A549 proliferation correlated well with its binding affinity to PKCs for this series of compounds. In other words, higher affinity binders had stronger inhibitory effects on A549 proliferation. This further support the notion that activation, rather than inhibition, of certain PKC isoforms is required to block proliferation of cancer cells, some of which may harbor K-Ras mutations. This is in sharp contrast to previous literature and common belief that inhibition of PKC is necessary to block cancer cell growth (Kang, 2014, New Journal of Science, 2014:1-36). Data presented here is in agreement with recent findings that many loss-of-function but not gain-of-function mutations of PKC isoforms have been identified in many human cancers (Antal et al., 2015, Cell, 160:489-502).
(§3) The compounds in this disclosure were tested for their potency in blocking proliferation of a few other cancer cells lines, including K-Ras mutant pancreatic cell lines Panc2.13 and KP-4, leukemia cell line HL-60, and lymphoma cell lines Namalwa and Mino. Similar procedures as in Example 67 were followed. Initial cell numbers seeded in 96-well plates were different for different cell lines: 3000 cells/well for Panc2.13; 800-1000 cells/well for KP-4; 5000 cells/well for HL-60; 5000-10000 cells/well for Namalwa and Mino. A ratio ratio of (IC50 of K01)/(IC50 of compound) (data in parenthesis in Table 5) was used to normalize the compound potency from different assay batches to a common comparator […].

[5] = system: Namalwa (Lymphoma) cell line; assay: Proliferation of Namalwa; type: cell-based; conditions: for ratio of (IC50 of K01)/(IC50 of compound), Namalwa: value in parenthesis; for IC50: read-out: IC50 in μM Namalwa (Lymphoma)
Experimental: as §2, §3

[6] = system: Mino (Lymphoma) cell line; assay: Proliferation of Mino; type: cell-based; conditions: for IC50: Homo sapiens, MINO, read-out: IC50 in μM Mino (Lymphoma); for ratio of (IC50 of K01)/(IC50 of compound), Mino: value in parenthesis
Experimental: as §2, §3

C1b domain of human PKCθ = biological target: T4, C1b domain of human PKCθ (Homo sapiens, UniProt Q04759); assay: Competitive 3H-PDBu binding to C1b domain of PKCθ
T4 construct: Genes encoding C1b domains of human PKCα, δ, ε, θ, and PKD1 (PKCμ) were synthesized; made in house; host or cells: E. coli BL21(DE3)
T4 sequence (Q04759 231-281 limits assumed): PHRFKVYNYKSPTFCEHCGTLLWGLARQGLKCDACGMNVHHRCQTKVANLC
Experimental: (§4) Compounds described in this disclosure were tested for binding affinity to C1b domain of PKC isoforms. Compound binding affinity to C1b domain of PKC isoforms was derived from competitive binding assay using radioactive tracer ^3H-PDBu and recombinant GST-C1b or full-length of human PKC proteins based on modified procedures from Methods in Molecular Biology, vol.
(§5) Genes encoding C1b domains of human PKCα, δ, ε, θ, and PKD1 (PKCμ) were synthesized and inserted into pGEX-2TK or pGEX-4T1 vectors for expression and production of GST-C1b proteins in E. coli BL21(DE3) via IPTG induction. The target proteins were purified by glutathione sepharose 4B and followed by ion exchange chromatography if needed to achieve purity >70%. Aliquots of the purified proteins were stored at −80 degree for binding assay (storage buffer: 20 mM Tris pH 8.0, 200 mM NaCl, 10% glycerol, 1 mM DTT).
(§6) The plate was incubated at 37° C. on a shaker at 300 rpm for 10 minutes and then put on ice for 20 minutes. […] The bottom of the filter plate was sealed and 50 μL of MicroScint-20 (PerkinElmer) cocktail was added to each well. ^3H-PDBu trapped in each well was counted using PerkinElmer MicroBeta2 Reader. Data were analyzed using GraphPad Prism5 with the model “log(inhibitor) vs. response-variable slope” to fit the IC50, and then IC50 was transformed to Ki using Cheng-Prusoff equation: Ki=IC50/(1+added radio ligand/Kd). Kd is the binding affinity of each protein preparation to ^3H-PDBu, determined experimentally.

C1b domain of human PKCε = biological target: T5, C1b domain of human PKCε (Homo sapiens, UniProt Q02156); assay: Competitive 3H-PDBu binding to C1b domain of PKCε
T5 construct: Genes encoding C1b domains of human PKCα, δ, ε, θ, and PKD1 (PKCμ) were synthesized; made in house; host or cells: E. coli BL21(DE3)
Experimental: as §4, §5, §6

[7] = system: Panc2.13 (Pancreatic) cell line; assay: Proliferation of Panc2.13; type: cell-based
Experimental: as §2, §3

[8] = system: KP-4 (Pancreatic) cell line; assay: Proliferation of KP-4; type: cell-based; conditions: Homo sapiens, KP-4, read-out: IC50 in μM KP-4 (Pancreatic)
Experimental: as §2, §3

T1 sequence (Q05655 230-280 limits assumed): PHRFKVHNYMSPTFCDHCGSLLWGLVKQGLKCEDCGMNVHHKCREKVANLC
T5 sequence (Q02156 242-292 limits assumed): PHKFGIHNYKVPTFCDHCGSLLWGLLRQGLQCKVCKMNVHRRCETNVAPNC

Row | SMILES | Ki (C1b domain of human PKCδ) | Ki PKCα (C1b domain of human PKCα) | Ki [1] | phosphorylation of PKC (PKD/PKCμ), PKCδ and Erk1/2 ([2]; 0.3 μM, Western blot (FIG. 1)) | IC50 [3] | ratio of (IC50 of K01)/(IC50 of compound), HL-60 [4] | IC50 [4] | ratio of (IC50 of K01)/(IC50 of compound), Namalwa [5] | IC50 [5] | IC50 [6] | ratio of (IC50 of K01)/(IC50 of compound), Mino [6] | Ki (C1b domain of human PKCθ) | Ki (C1b domain of human PKCε) | ratio of (IC50 of K01)/(IC50 of compound), Panc2.13 ([7]; Panc2.13, value in parenthesis) | IC50 ([7]; read-out: IC50 in μM Panc2.13 (Pancreatic)) | IC50 [8] | Ki (C1b domain of human PKCα) | phosphorylation of PKC (PKD/PKCμ), PKCδ and Erk1/2 ([2]; 3 μM, Western blot) | phosphorylation of PKC (PKD/PKCμ), PKCδ and Erk1/2 ([2]; Western blot, concentration not given, compared with enantiomer K101-C1327)
1 | CC1=C[C@H]2[C@@]3(O)[C@H](C)C[C@]4(OC(=O)CCc5ncc(-c6ccc(Cl)cc6)o5)[C@H]([C@@H]3C=C(CO)C[C@]2(O)C1=O)C4(C)C [Compound K101-C1321] | < 5 nM | E (E=>60 nM and ≤10 nM) | < 5 nM | induced high levels of phosphorylation | 0.03 to 0.06 µM | 5.71 | 0.06 to 0.1 µM | 1.15 | 0.03 to 0.06 µM | 0.01 to 0.03 µM | 5.36 | – | – | – | – | – | – | – | –
2 | CC/C=C\C/C=C\C/C=C\C/C=C\C/C=C\C/C=C\CCC(=O)O[C@@]12C[C@@H](C)[C@@]3(O)[C@@H](C=C(CO)C[C@]4(O)C(=O)C(C)=C[C@@H]34)[C@@H]1C2(C)C [Compound K101-C1333] | < 5 nM | E (E=>60 nM and ≤10 nM) | < 5 nM | – | 0.001 to 0.01 µM | 80 | 0.001 to 0.01 µM | 20.9 | 0.001 to 0.01 µM | < 0.001 µM | 82.5 | < 5 nM | 1 to 30 nM | 157 | 0.001 to 0.01 µM | 0.001 to 0.01 µM | – | – | –
3 | CC1=C[C@H]2[C@@]3(O)[C@H](C)C[C@]4(OC(=O)[C@H](N)Cc5ccccc5)[C@H]([C@@H]3C=C(CO)C[C@]2(O)C1=O)C4(C)C [Compound K101-C1336] | 100 to 200 nM | – | 30 to 60 nM | – | 1 to 2 µM | – | – | – | – | – | – | – | – | – | – | – | 2000 to 4000 nM | induced phosphorylation | –
4 | CC1=C[C@H]2[C@@]3(O)[C@H](C)C[C@]4(OC(=O)[C@H](N)CC5CCCCC5)[C@H]([C@@H]3C=C(CO)C[C@]2(O)C1=O)C4(C)C [Compound K101-C1337] | 1 to 30 nM | – | 5 to 10 nM | – | 0.2 to 0.6 µM | – | – | – | – | – | – | – | – | – | – | – | 1000 to 2000 nM | – | induced much lower levels of phosphorylation
